# Molecular target: human vanin-1 (Homo sapiens (Human), UniProt O95497)
# Assay: Human Vanin-1 Enzyme Assay 1
# Assay type: biochemical
# Settings: 25 pM human vanin-1, 50 uM pantetheine 7-amino-4-trifluoromethylcoumarin substrate
# Procedure: Human Vanin-1Enzyme Assay 1.
# The in vitro assay measures enzymatic cleavage of the fluorescently-labeled vanin substrate, pantetheine 7-amino-4-trifluoromethylcoumarin, by human vanin-1.
# The vanin-1 protein was prepared in-house from a construct expressing the extracellular domain of human vanin-1 (GenBank ID NM_004666) preceded N-terminally by the honey bee melittin signal peptide, a GSG linker sequence, a His6× tag and a FLAG tag. The secreted, soluble enzyme was purified from the conditioned medium from a CHO cell line stably expressing the resulting protein. Enzyme purification was performed through sequential Ni NTA and size-exclusion chromatography steps.
# Intermediate concentrations were prepared by diluting in DMSO in a four-fold series for a total of 11 data points.
# To begin the assay 100 nL was transferred from the compound plate to the assay plate. Next, 15 μL of the vanin-1 working solution were transferred to the assay plate. The inhibitor and enzyme were incubated at room temperature for 30 minutes. The enzyme reaction was then initiated by the addition of 5 μL of 200 μM pantetheine 7-amino-4-trifluoromethylcoumarin prepared in assay buffer. […] The final concentration of DMSO was 0.5%.
# human vanin-1, sequence (O95497 22-491): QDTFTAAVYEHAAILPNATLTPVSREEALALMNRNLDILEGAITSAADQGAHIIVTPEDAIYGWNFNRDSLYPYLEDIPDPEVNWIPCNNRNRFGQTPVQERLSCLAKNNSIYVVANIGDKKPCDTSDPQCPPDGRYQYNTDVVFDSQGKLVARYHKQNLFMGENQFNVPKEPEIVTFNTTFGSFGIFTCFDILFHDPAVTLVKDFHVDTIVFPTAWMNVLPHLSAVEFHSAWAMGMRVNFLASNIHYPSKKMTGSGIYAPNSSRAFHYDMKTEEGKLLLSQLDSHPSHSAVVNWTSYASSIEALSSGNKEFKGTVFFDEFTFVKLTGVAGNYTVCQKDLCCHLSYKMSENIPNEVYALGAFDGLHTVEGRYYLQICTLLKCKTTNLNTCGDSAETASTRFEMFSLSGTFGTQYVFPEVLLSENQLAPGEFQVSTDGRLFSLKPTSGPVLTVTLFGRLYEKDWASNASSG
row,IC50 [nM],SMILES
1,43.9,C[C@H](Nc1ncc(C(=O)N2CCC3(CN(C)C3)C2)cn1)c1cnccn1 [Example 122]
2,1600,CC(C)(O)C1CCN(C(=O)c2cnc(NC3(c4cncnc4)CC3)nc2)CC1 [Example 78]
3,829,O=C(c1cnc(NC2(c3cncnc3)CC2)nc1)N1CCCC1C(F)(F)F (centres unmarked) [Example 73]
4,1180,"CS(=O)(=O)C1CCCN(C(=O)c2cnc(NC3(c4cncnc4)CC3)nc2)C1 (single isomer, unassigned) [Example 199]"
5,611,CN1CC2(CCN(C(=O)c3cnc(NC4(c5cncnc5)CC4)nc3)CC2)OC1=O [Example 57]
6,31.3,O=C(c1cnc(NC2(c3cncnc3)CC2)nc1)N1CCC[C@@]2(CCCC[C@@H]2O)C1 [Example 77]
7,421,O=C(c1cnc(NC2(c3cncnc3)CC2)nc1)N1CCC(C(F)(F)F)CC1 [Example 63]
8,8.13,O=C(c1cnc(NC2(c3cncnc3)CC2)nc1)N1CCC(F)CC1 [Example 68]
9,323,O=C(c1cnc(NCc2cccnc2)nc1)N1CC(O)C1 [Example 16]
10,3.92,C[C@H]1CN(C(=O)c2cnc(NC3(c4cncnc4)CC3)nc2)C[C@]1(C)CO (relative stereo) [Example 62]
11,591,C[C@@H]1CN(C(=O)c2cnc(NC3(c4cncnc4)CC3)nc2)CCO1 [Example 99]
12,4240,C[C@@H]1CN(C(=O)c2cnc(NC3(c4cncnc4)CC3)nc2)C[C@H](C)O1 [Example 67]
13,91.3,C[C@@H](Nc1ncc(C(=O)N2CC3(CCOCC3)C2)cn1)c1cncnc1 [Example 152]
14,40.5,O=C(c1cnc(NC2(c3cncnc3)CC2)nc1)N1CCCC(F)C1 (centres unmarked) [Example 93]
15,2.21,CCC1(OC)CCN(C(=O)c2cnc(NC3(c4cncnc4)CC3)nc2)C1 (centres unmarked) [Example 192]
16,545,O=C(c1cnc(NC2(c3cncnc3)CC2)nc1)N1CCCC[C@H]1CCO [Example 80]
17,62.6,CC1COCCN(C(=O)c2cnc(NC3(c4cncnc4)CC3)nc2)C1 (centres unmarked) [Example 38]

row,IC50 [nM],SMILES
1,2850,O=C(c1cnc(NC2(c3cncnc3)CC2)nc1)N1CCC(C(O)C(F)(F)F)CC1 (centres unmarked) [Example 60]
2,1230,CC1(O)CCCN(C(=O)c2cnc(NCc3cccnc3)nc2)C1 (centres unmarked) [Example 26]
3,17.9,C[C@H]1CN(C(=O)c2cnc(NCc3cccnc3)nc2)C[C@@H]1CO [Example 6]
4,0.504,O=C(c1cnc(NC2(c3cncnc3)COC2)nc1)N1CC2(CCOCC2)C1 [Example 134]
5,26.9,CC(C)[C@H]1C[C@@H](O)CN(C(=O)c2cnc(NC3(c4cncnc4)CC3)nc2)C1 [Example 40]
6,100,O=C(c1cnc(NC2(c3cncnc3)CC2)nc1)N1CC2C(C1)C2C(F)(F)F (centres unmarked) [Example 64]
7,407,O=C(c1cnc(NCc2cccnc2)nc1)N1Cc2ccccc2C1 [Example 19]
8,1920,NC(=O)C1CCN(C(=O)c2cnc(NCc3cccnc3)nc2)CC1 [Example 29]
9,40.8,O=C(c1cnc(NC2(c3cncnc3)CC2)nc1)N1CC2(CC(O)C2)C1 [Example 102]
10,75.9,CCOC1CCN(C(=O)c2cnc(NCc3cccnc3)nc2)C1 (centres unmarked) [Example 10]
11,171,O=C(c1cnc(NCc2cnccn2)nc1)N1CCN2C[C@@H](F)C[C@H]2C1 [Example 110]
12,60.3,O=C(c1cnc(NC2(c3cncnc3)CC2)nc1)N1CCOC2(CCCC2)C1 [Example 52]
13,20.9,C[C@H](Nc1ncc(C(=O)N2CCN3CCC[C@@H]3C2)cn1)c1cnccn1 [Example 114]
14,749,CC(=O)N1CCN(C(=O)c2cnc(NCc3cccnc3)nc2)CC1 [Example 24]
15,1360,O=C(c1cnc(NC2(c3cncnc3)CC2)nc1)N1CCC(C2(O)CCCC2)CC1 [Example 101]
16,4.64,C[C@H](Nc1ncc(C(=O)N2CCN3CC(F)(F)C[C@H]3C2)cn1)c1cnccn1 [Example 118]
17,148,CC(C)[C@H]1C[C@H](O)CN(C(=O)c2cnc(NC3(c4cncnc4)CC3)nc2)C1 [Example 72]

row,SMILES,IC50 [nM]
1,O=C(c1cnc(NCc2cncnc2)nc1)N1CCCCC1 [Example 187],83.7

# Source: patent publication US10906888B2, “Pyrimidine carboxamides as inhibitors of Vanin-1 enzyme” (Pfizer Inc., priority 2016, dated 2021)
